One series has as its target IMP-1 (Serratia marcescens, UniProt P52699). In kind it is biochemical. The following applies: CCF2-FA substrate, 2 hours at 25° C. As to the method:
(§1) Enzyme Activity: Determination of IC50
(§2) The Class B enzyme activities were measured in the presence of the test inhibitor in a fluorescence assay against a commercially available substrate consisting of a cephalosporin core linking 7-hydroxycoumarin to fluorescein (CCF2-FA). […] In a 384-well microplate, the test inhibitor was incubated with the metallo-β-lactamase enzyme and the substrate for 2 hours at 25° C. […] The IC50 value was determined from semi-logarithmic plots of enzyme inhibition versus inhibitor concentration, with a curve generated using a 4-parameter fit.

In the next series the target is NDM-1 (Klebsiella pneumoniae, UniProt C7C422). In kind it is biochemical. To be noted: CCF2-FA substrate, 2 hours at 25° C. As to the method:
as §1, §2

Series [1] concerns Pseudomonas aeruginosa PAO1 MB9798 (efflux+, IMP-1). The following applies: for Efflux ratio: ratio MITC95 PA 9798/MITC95 PA 9799. The method, boiled down: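 Isogenic PAO1 pair (efflux+ MB9798, efflux− MB9799, both IMP-1) tested by microbroth MIC with fixed imipenem and/or ceftazidime, usually at CLSI breakpoint, plus fixed class A/C inhibitor against AmpC. MBL inhibitor titrated; concentration restoring susceptibility recorded and fold difference between strains taken as efflux extent.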

For series [2], the system named is Pseudomonas aeruginosa PAO1 MB9799 (efflux-, IMP-1). Format: cell-based. To be noted: C, D serine β-lactamase inhibitor closely related to relebactam. The text has this:
The strain background was Pseudomonas aeruginosa PAO1.
The strain set was then used as a pair to determine the effect of metallo-β-lactamase inhibitors of Formula I on the MIC of imipenem and/or ceftazidime. A fixed concentration of antibiotic was included in standard microbroth MIC tests, usually at the CLSI (Clinical and Laboratory Standards Institute) breakpoint concentration. A fixed amount of a class A/C beta-lactamase inhibitor was also included to inhibit the resident Pseudomonas AmpC enzyme. A serial titration of the metallo-β-lactamase inhibitor was included and the concentration of metallo-β-lactamase inhibitor which restores susceptibility of the strain to the included antibiotic was recorded. That concentration of metallo-β-lactamase inhibitor was then compared between the two strains to determine the fold difference between the efflux + (MB9798) and efflux − (MB9799) strains. This was taken as an indication of the extent to which the MBLi is subject to efflux.

Series [3] concerns Escherichia coli expressing NDM-1 (CLB30005, CLB30016). In kind it is cell-based. To be noted: with imipenem 1 μg/ml; 95% inhibition of bacterial growth. The procedure, abridged: (§3)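 Clinical strains were grown overnight at 35 °C on blood agar, adjusted to set OD600 in saline and diluted 1:100 into 1.1× CAMHB. Inhibitor was tested with and without imipenem at 1 μg/ml. After 22–24 h at 35 °C, absorbance was read to give synergistic concentration.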

Series [4] concerns Klebsiella pneumoniae expressing VIM-1 (IHMA599644). In kind it is cell-based. The following applies: with imipenem 1 μg/ml; 95% inhibition of bacterial growth. The method, boiled down: as §3
The test system of series [5] is Serratia marcescens expressing IMP-1 (CL5741). Format: cell-based. To be noted: with imipenem 1 μg/ml; 95% inhibition of bacterial growth. The method, boiled down:
as §3

NDM-1, sequence (C7C422 whole entry, looked up, species assumed): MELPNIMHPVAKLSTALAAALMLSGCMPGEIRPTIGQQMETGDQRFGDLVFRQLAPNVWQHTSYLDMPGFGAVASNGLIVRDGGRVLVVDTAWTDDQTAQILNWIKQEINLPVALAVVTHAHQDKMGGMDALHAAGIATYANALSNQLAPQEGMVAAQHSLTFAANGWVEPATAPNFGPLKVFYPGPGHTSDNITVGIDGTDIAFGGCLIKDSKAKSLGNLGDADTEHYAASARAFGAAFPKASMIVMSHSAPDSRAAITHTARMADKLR
IMP-1, sequence (P52699 whole entry, looked up, species assumed): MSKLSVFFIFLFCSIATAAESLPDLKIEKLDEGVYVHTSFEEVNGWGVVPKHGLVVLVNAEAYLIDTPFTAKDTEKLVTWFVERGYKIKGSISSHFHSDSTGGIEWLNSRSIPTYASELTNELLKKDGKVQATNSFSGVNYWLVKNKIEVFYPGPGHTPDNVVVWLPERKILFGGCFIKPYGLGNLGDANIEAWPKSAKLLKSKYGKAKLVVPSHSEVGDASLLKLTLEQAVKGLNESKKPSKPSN

Consider `NC[C@H](O)CNS(=O)(=O)c1ccc(-c2ccnc(N)c2)c(-c2nn[nH]n2)c1S(N)(=O)=O` [Example 417, (S)-N^1-(3-amino-2-hydroxypropyl)-4-(2-aminopyridin-4-yl)-3-(2H-tetrazol-5-yl)benzene-1,2-disulfonamide], for which the half-inhibitory concentration (IC50) against IMP-1 was 1.28 nM; at NDM-1, 0.385 nM. For the same molecule, in series [1] (imipenem at 2 μg/mL, in the presence of a class A, C, D serine β-lactamase inhibitor closely related to relebactam, efflux + strain MB9798), the “Concentration of metallo-β-lactamase inhibitor which restores susceptibility of efflux + (MB9798) strain to imipenem” value is recorded as 1.563. Further, the “Concentration of metallo-β-lactamase inhibitor which restores susceptibility of efflux − (MB9799) strain to imipenem” value in series [2] (imipenem at 2 μg/mL, in the presence of a class A) stood at 0.7813.

As for `NC[C@@H](CO)NS(=O)(=O)c1ccc(-c2cccc(N)n2)c(-c2nn[nH]n2)c1S(N)(=O)=O` [Example 382, (S)—N1-(1-amino-3-hydroxypropan-2-yl)-4-(6-aminopyridin-2-yl)-3-(2H-tetrazol-5-yl)benzene-1,2-disulfonamide], the “Escherichia coli (NDM-1) MITC95” value in series [3] was 1.563 µM. Also, in series [4], the “Klebsiella pneumoniae (VIM-1) MITC95” value was found to be 3.125 µM. For the same molecule, in series [5], the “Serratia marcescens (IMP-1) MITC95” value came out at 1.563 µM. In series [1] (imipenem at 2 μg/mL), the Efflux ratio came to 1.00.

Turning to `NCCNS(=O)(=O)c1ccc(-c2cccc3[nH]c(CCN)nc23)c(-c2nn[nH]n2)c1S(N)(=O)=O` [Example 337, N1-(2-aminoethyl)-4-(2-(2-aminoethyl)-1H-benzo[d]imidazol-4-yl)-3-(2H-tetrazol-5-yl)benzene-1,2-disulfonamide], the “Escherichia coli (NDM-1) MITC95” value in series [3] was 0.7813 µM. In series [4], the “Klebsiella pneumoniae (VIM-1) MITC95” value stood at 0.7813 µM. The “Serratia marcescens (IMP-1) MITC95” value in series [5] is 0.7813 µM. Also, in series [1] (imipenem at 2 μg/mL), the Efflux ratio worked out at 2.00.

As for `NCCNS(=O)(=O)c1ccc(-c2cccc(NC[C@H](N)CO)c2)c(-c2nn[nH]n2)c1S(N)(=O)=O` [Example 350, (S)-3′-((2-amino-3-hydroxypropyl)amino)-N4-(2-aminoethyl)-2-(2H-tetrazol-5-yl)-[1,1′-biphenyl]-3,4-disulfonamide], in series [3], the “Escherichia coli (NDM-1) MITC95” value is 0.7813 µM. Besides, the “Klebsiella pneumoniae (VIM-1) MITC95” value in series [4] was 0.7813 µM. Besides, in series [5], the “Serratia marcescens (IMP-1) MITC95” value came out at 0.7813 µM. Besides, the Efflux ratio in series [1] (imipenem at 2 μg/mL) was 1.00.

Take `NCCNS(=O)(=O)c1ccc(-c2cccc(NC[C@H](O)CN)c2)c(-c2nn[nH]n2)c1S(N)(=O)=O` [Example 351, (R)-3′-((3-amino-2-hydroxypropyl)amino)-N4-(2-aminoethyl)-2-(2H-tetrazol-5-yl)-[1,1′-biphenyl]-3,4-disulfonamide]: the “Escherichia coli (NDM-1) MITC95” value in series [3] was 0.7813 µM. Also, in series [4], the “Klebsiella pneumoniae (VIM-1) MITC95” value is 1.563 µM. In series [5], the “Serratia marcescens (IMP-1) MITC95” value amounted to 1.563 µM. In addition, the Efflux ratio in series [1] (imipenem at 2 μg/mL) came to 2.00.

Take `NCCNS(=O)(=O)c1ccc(-c2cccc(SC[C@@H](O)CN)c2)c(-c2nn[nH]n2)c1S(N)(=O)=O` [Example 357, (S)-5′-(3-amino-2-hydroxypropylthio)-N4-(2-aminoethyl)-2-(2H-tetrazol-5-yl)biphenyl-3,4-disulfonamide]: the “Escherichia coli (NDM-1) MITC95” value in series [3] worked out at 0.7813 µM. For the same molecule, the “Klebsiella pneumoniae (VIM-1) MITC95” value in series [4] stood at 0.7813 µM. Moreover, the “Serratia marcescens (IMP-1) MITC95” value in series [5] was found to be 0.7813 µM. Besides, in series [1] (imipenem at 2 μg/mL), the Efflux ratio is on record as 2.00.

Consider `Cc1ccc(-c2ccc(S(=O)(=O)NCCN)c(S(N)(=O)=O)c2-c2nn[nH]n2)c2nc(N)[nH]c12` [Example 329, 4-(2-Amino-7-methyl-1H-benzo[d]imidazol-4-yl)-N1-(2-aminoethyl)-3-(2H-tetrazol-5-yl)benzene-1,2-disulfonamide], for which the “Escherichia coli (NDM-1) MITC95” value in series [3] was found to be 1.563 µM. For the same molecule, the “Klebsiella pneumoniae (VIM-1) MITC95” value in series [4] is 1.563 µM. Moreover, the “Serratia marcescens (IMP-1) MITC95” value in series [5] was 1.563 µM. Further, the Efflux ratio in series [1] (imipenem at 2 μg/mL) turned out to be 2.00.

Take `NCCNS(=O)(=O)c1ccc(-c2cccc(NC[C@@H](O)CN)c2)c(-c2nn[nH]n2)c1S(N)(=O)=O` [Example 352, (S)-3′-((3-amino-2-hydroxypropyl)amino)-N4-(2-aminoethyl)-2-(2H-tetrazol-5-yl)-[1,1′-biphenyl]-3,4-disulfonamide]: the “Escherichia coli (NDM-1) MITC95” value in series [3] amounted to 0.7813 µM. In addition, the “Klebsiella pneumoniae (VIM-1) MITC95” value in series [4] stood at 1.563 µM. Besides, the “Serratia marcescens (IMP-1) MITC95” value in series [5] is 1.563 µM. Further, the Efflux ratio in series [1] (imipenem at 2 μg/mL) is recorded as 2.00.

Consider `NCCNS(=O)(=O)c1ccc(C2=CC(N)CCC2)c(-c2nn[nH]n2)c1S(N)(=O)=O` (stereo not shown) [Example 338, 5′-Amino-N4-(2-aminoethyl)-2-(2H-tetrazol-5-yl)-2′,3′,4′,5′-tetrahydro-[1,1′-biphenyl]-3,4-disulfonamide], for which, in series [3], the “Escherichia coli (NDM-1) MITC95” value stood at 1.563 µM. For the same molecule, the “Klebsiella pneumoniae (VIM-1) MITC95” value in series [4] worked out at 1.563 µM. In addition, the “Serratia marcescens (IMP-1) MITC95” value in series [5] was determined as 1.563 µM. For the same molecule, in series [1] (imipenem at 2 μg/mL), the Efflux ratio is reported as 4.00.

With `NCCNS(=O)(=O)c1ccc(-c2cccc(NC[C@@H](N)CO)c2)c(-c2nn[nH]n2)c1S(N)(=O)=O` [Example 349, (R)-3′-((2-amino-3-hydroxypropyl)amino)-N4-(2-aminoethyl)-2-(2H-tetrazol-5-yl)-[1,1′-biphenyl]-3,4-disulfonamide], the “Escherichia coli (NDM-1) MITC95” value in series [3] was 1.563 µM. In addition, the “Klebsiella pneumoniae (VIM-1) MITC95” value in series [4] was 1.563 µM. Further, in series [5], the “Serratia marcescens (IMP-1) MITC95” value worked out at 1.563 µM. Moreover, in series [1] (imipenem at 2 μg/mL), the Efflux ratio amounted to 2.00.

Turning to `NCCn1nc2cccc(-c3ccc(S(=O)(=O)N[C@@H]4CCNC4)c(S(N)(=O)=O)c3-c3nn[nH]n3)c2n1` [Example 279, (R)-4-(2-(2-aminoethyl)-2H-benzo[d][1,2,3]triazol-4-yl)-N1-(pyrrolidin-3-yl)-3-(2H-tetrazol-5-yl)benzene-1,2-disulfonamide], the “Escherichia coli (NDM-1) MITC95” value in series [3] amounted to 0.7813 µM. In series [4], the “Klebsiella pneumoniae (VIM-1) MITC95” value turned out to be 0.7813 µM. Besides, the “Serratia marcescens (IMP-1) MITC95” value in series [5] stood at 0.7813 µM. Moreover, the Efflux ratio in series [1] (imipenem at 2 μg/mL) is on record as 1.00.

For `C[N+]1(CCN)CC[C@@H](NS(=O)(=O)c2ccc(-c3cccc4[nH]c(N)nc34)c(-c3nn[nH]n3)c2S(N)(=O)=O)C1` (stereo partly drawn) [Example 248, (3R)-3-{[4-(2-amino-1H-1,3-benzodiazol-4-yl)-2-sulfamoyl-3-(2H-1,2,3,4-tetrazol-5-yl)benzene]sulfonamido}-1-(2-aminoethyl)-1-methylpyrrolidin-1-ium; methaneperoxoate], the “Klebsiella pneumoniae (VIM-1) MITC95” value in series [4] was found to be 0.7813 µM. The “P. aeruginosa expressing IMP-1, efflux + (MB9798) MITC95” value in series [1] (restores susceptibility to imipenem at 2 μg/mL in the presence of a class A, C, D serine β-lactamase inhibitor closely related to relebactam, efflux + strain MB9798) was found to be 0.7813 µM. Also, the “P. aeruginosa expressing IMP-1, efflux − (MB9799) MITC95” value in series [2] (restores susceptibility to imipenem at 2 μg/mL in the presence of a class A, efflux − strain MB9799) stood at 0.7813 µM.

As for `NCc1ncc(-c2cccc(-c3ccc(S(=O)(=O)N[C@@H]4CCNC4)c(S(N)(=O)=O)c3-c3nn[nH]n3)c2)[nH]1` [Example 278, (R)-3′-(2-(aminomethyl)-1H-imidazol-5-yl)-N4-(pyrrolidin-3-yl)-2-(2H-tetrazol-5-yl)-[1,1′-biphenyl]-3,4-disulfonamide], the “Escherichia coli (NDM-1) MITC95” value in series [3] is 0.7813 µM. Also, the “Klebsiella pneumoniae (VIM-1) MITC95” value in series [4] came to 0.7813 µM. Moreover, in series [5], the “Serratia marcescens (IMP-1) MITC95” value was 0.7813 µM. For the same molecule, the Efflux ratio in series [1] (imipenem at 2 μg/mL) amounted to 1.00.

As to `NCCN1CC[C@@H](NS(=O)(=O)c2ccc(-c3cccc4[nH]c(N)nc34)c(-c3nn[nH]n3)c2S(N)(=O)=O)C1` [Example 246, (R)-4-(2-amino-1H-benzo[d]imidazol-4-yl)-N1-(1-(2-aminoethyl)pyrrolidin-3-yl)-3-(2H-tetrazol-5-yl)benzene-1,2-disulfonamide], in series [3], the “Escherichia coli (NDM-1) MITC95” value turned out to be 0.7813 µM. Moreover, in series [4], the “Klebsiella pneumoniae (VIM-1) MITC95” value turned out to be 1.563 µM. In series [5], the “Serratia marcescens (IMP-1) MITC95” value was found to be 1.563 µM. Besides, the Efflux ratio in series [1] (imipenem at 2 μg/mL) came out at 2.00.

The values are drawn from patent US10544130B2, “Metallo-beta-lactamase inhibitors” (priority 2015, dated 2020).
